Measurements published in PubChem BioAssay (NCI).
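Assay format: 96-well plates, 48-hour exposure. GI50: concentration for 50% inhibition of growth. Definition used: TGI = concentration required for complete inhibition of growth.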

Legend:
Experiment in all cases: NCI anticancer screen, dose series, 48 h
SN12C renal = test system: SN12C renal
OVCAR-5 ovarian = test system: OVCAR-5 ovarian
BT-549 breast = test system: BT-549 breast
RXF 393 renal = test system: RXF 393 renal
SNB-75 CNS = test system: SNB-75 CNS
SF-268 CNS = test system: SF-268 CNS
RPMI-8226 leukemia = test system: RPMI-8226 leukemia
HT29 colon = test system: HT29 colon
CAKI-1 renal = test system: CAKI-1 renal
SR leukemia = test system: SR leukemia
LOX IMVI melanoma = test system: LOX IMVI melanoma
UO-31 renal = test system: UO-31 renal
EKVX NSCLC = test system: EKVX NSCLC
T-47D breast = test system: T-47D breast
SF-539 CNS = test system: SF-539 CNS
SK-OV-3 ovarian = test system: SK-OV-3 ovarian
HOP-62 NSCLC = test system: HOP-62 NSCLC
MCF7 breast = test system: MCF7 breast
UACC-62 melanoma = test system: UACC-62 melanoma
OVCAR-8 ovarian = test system: OVCAR-8 ovarian
UACC-257 melanoma = test system: UACC-257 melanoma
ACHN renal = test system: ACHN renal
HL-60(TB) leukemia = test system: HL-60(TB) leukemia
DU-145 prostate = test system: DU-145 prostate
NCI-H226 lung = test system: NCI-H226 lung
786-0 renal = test system: 786-0 renal
IGROV1 ovarian = test system: IGROV1 ovarian
K-562 leukemia = test system: K-562 leukemia
SK-MEL-5 melanoma = test system: SK-MEL-5 melanoma

## Clc1ccc(/C=C2\CCCC3C2=Nc2ccccc2NC3c2ccc(Cl)cc2)cc1 (stereo not drawn)
SN12C renal
  GI50: 6.81 µM
  TGI: 34.2 µM
OVCAR-5 ovarian
  GI50: 8.63 µM
  TGI: 22.3 µM
BT-549 breast
  GI50: 2.24 µM
  TGI: 6.81 µM
RXF 393 renal
  GI50: 1.81 µM
  TGI: 3.47 µM
SNB-75 CNS
  GI50: 12.3 µM
  TGI: 57.5 µM
SF-268 CNS
  GI50: 4.05 µM
  TGI: > 77.7 µM
RPMI-8226 leukemia
  GI50: 1.85 µM
  TGI: 5.13 µM
HT29 colon
  GI50: 2.79 µM
  TGI: 7.95 µM
CAKI-1 renal
  GI50: 3.95 µM
  TGI: 69.9 µM
SR leukemia
  GI50: 2.6 µM
  TGI: 6.64 µM
LOX IMVI melanoma
  GI50: 1.74 µM
  TGI: 3.18 µM
UO-31 renal
  GI50: 3.15 µM
  TGI: 12.5 µM
EKVX NSCLC
  GI50: 4.07 µM
  TGI: 52.5 µM
T-47D breast
  GI50: 6.27 µM
  TGI: > 87.9 µM
SF-539 CNS
  GI50: 4.75 µM
  TGI: 47.4 µM
SK-OV-3 ovarian
  GI50: 7.49 µM
  TGI: > 100 µM
HOP-62 NSCLC
  GI50: 3.86 µM
  TGI: 22.1 µM
MCF7 breast
  GI50: 2.92 µM
  TGI: > 34 µM
UACC-62 melanoma
  GI50: 6.7 µM
  TGI: 25.4 µM
OVCAR-8 ovarian
  GI50: 2.75 µM
  TGI: 8.31 µM
UACC-257 melanoma
  GI50: 2.14 µM
  TGI: 5.88 µM
ACHN renal
  GI50: 4.42 µM
  TGI: > 25.4 µM
HL-60(TB) leukemia
  GI50: 4.85 µM
  TGI: 33 µM
DU-145 prostate
  GI50: 4.39 µM
  TGI: 23.9 µM
NCI-H226 lung
  GI50: 1.91 µM
  TGI: 4.19 µM
786-0 renal
  GI50: 3.48 µM
  TGI: 16.2 µM
IGROV1 ovarian
  GI50: 3.3 µM
  TGI: 10.2 µM
K-562 leukemia
  GI50: 3.91 µM
  TGI: 27.8 µM
SK-MEL-5 melanoma
  GI50: 2.91 µM
  TGI: 7.19 µM
